Each block holds one compound with its values, some of them ahead of it.
Columns and labels:
[1] = tested on: collagen and epinephrine induced thrombosis in mice; experiment: Effect on mouse thrombosis: collagen and adrenaline induced pulmonary thromboembolism; format: in vivo
Protocol: Pulmonary thromboembolism was induced by following a method of Diminno and Silver^(1). Test compounds (30 μM/Kg) or vehicle were administered orally 60 min prior to the thrombotic challenge. A mixture of collagen (150 μg/ml) and adrenaline (50 μg/mL) was administered by the rapid intravenous injection into the tail vein to induce hind limb paralysis or death. A group of 10 animals were used to evaluate the effect of test compound, while 5 mice were used to assess effect of a standard drug, aspirin and a group of vehicle treated (n=5) mice was also used each experiment.
% Protection was expressed as: […]
Ptest is the number of animals paralyzed/dead in the test compound-treated group, and Pcontrol is the number of animals paralyzed/dead in vehicle treated group.

mouse-tail Bleeding time = experiment: Effect on mouse-tail bleeding time; details: mice
Protocol: The tail 2 mm from tip was incised and the blood oozed was soaked with filter paper till the bleeding stops. The time elapsed from the tip incision to the stoppage of bleeding was determined as the bleeding time. Test compound (30 μM/kg), aspirin or vehicle was given orally 60 min prior to the tail incision. Each group consisted of 5 mice.

rat platelet aggregation = experiment: Ex vivo effect on rat platelet aggregation (PRP, aggregometer); format: cell-based, Sprague Dawley rats; details: 30 μM/kg ip; for % Aggregation / % Inhibition: rat PRP
Protocol: Sodium citrate: The blood was centrifuged at 275×g for 20 min and the platelet rich plasma (PRP) was collect. The remaining blood was further centrifuged at 1500 g for 15 min at 20° C. to obtain platelet poor plasma (PPP). The platelet count in the PRP was adjusted to 2×10^8 cells/ml by using PPP. Adenosine-5′-diphosphate (ADP), thrombin, collagen, calcium ionophore A23187 or phorbol myristate ester (PMA) induced aggregation was monitored on a dual channel aggregometer (Chrono-log, USA). The test compound was incubated with PRP or 5 min before the addition of aggregation on inducing agent. Percent inhibition of the test compounds at various concentrations was calculated as follows: […]
(§1) Effect on venous thrombosis model in rabbit: The selected compounds were evaluated at 10 μM/Kg and 30 μM/kg dose for their efficacy against stasis induced thrombosis in LPS treated rabbits. […] Ex vivo effect of selective compounds on rat platelet aggregation: Blood was collected in sodium citrate to obtain PRP and evaluate the ex vivo effect of selective compounds ((i), (ii), (iii) at 30 μM/kg administered by the ip route) against ADP, collagen, phorbol myristate ester (PMA) calcium ionophore (A23187), or thrombin induced aggregation. It was observed that all these compounds were consistent against collagen-induced platelet aggregation (Table 3). (iii) inhibited ADP (10 μM), collagen (10 μg/ml), PMA (1.5 μM), and thrombin (0.64 U/ml) induced platelet aggregation while no inhibition was found against calcium ionophore A23187 (2.5 μg/ml) induced platelet aggregation. […] Effect on clotting parameters: The selected compounds were also tested in vitro for their effect on thrombin time (TT), prothrombin time (PT) and activated partial thromboplastin time (aPTT) at 100 μg/ml and 200 μg/ml in vitro (Table 4). The test compounds at 100 μg/ml had no significant effect of on these parameters. Some effect was though seen on PT at 200 μg/ml concentration, but the concentration seems to be quite high.

[2] = tested on: thrombin time (TT), prothrombin time (PT) and activated partial thromboplastin time (aPTT); experiment: Evaluation of coagulation parameters (TT, PT, aPTT) in rat plasma in vitro; format: biochemical
Protocol: (§2) [formula] 1.4 Evaluation of coagulation parameters: Blood was collected by cardiac puncture from ether-anaesthetized rat using a syringe containing 3.2% tri-sodium citrate (9:1, v/v). Plasma was obtained by centrifugation of citrated blood at 2500×g for 15 min at 20° C. Stock solutions of the test compounds were prepared freshly in DMSO and were diluted in DMSO. Thrombin time (TT), prothrombin time (PT) and activated partial thromboplastin time (aPTT) were evaluated according to manufacturer's instructions supplied with kits (Stago, France) and measured by Coagulometer (Stago, France)^(4). In each set of experiment effect of DMSO on these parameters was also assessed and was used to calculate change in TT, PT or aPTT. 1.5 Rabbit venous thrombosis model: Experiments were performed on New Zealand white strain rabbits (2-3 kg) either sex. Escherichia coli LPS strain 1055:B5 (Sigma Chemicals, USA) was injected intravenously via ear vein (1 μg/kg)^(5,6). Jugular veins on both sides were exposed and dissected free from surrounding tissue. Two loose surer were placed 1.5 cm apart and all collateral veins were ligated. Four hours after E. coli endotoxin injection (animal is watched for any signs of hypersensitivity reaction during this period), stasis was established and maintained for 45 min by tightening the two sutures. Ligated segments were removed and opened longitudinally and the thrombus was carefully removed and weighed. Heparin sodium (Beparine from beef intestinal mucosa ≧140 USP units/mg; Biological E. Limited, India) was given in doses of (0.5, 0.25, 0.1 mg/kg i.v., via ear vein) 5 min before stasis. 1.6 Effect of compound (i) on human platelet aggregation in vitro: Platelet aggregation study was done on human platelets following isolation of PRP from the human blood as described above (1.3). Aggregation was induced by collagen (10 μg/ml, 5 μg/ml), ADP (10 μM) and thrombin (0.5 U/ml). 2. Results: Effect of test compounds is indicated in the following table (1) against collagen and epinephrine induced thrombosis in mice, which is a primary screening model to detect antithrombotic efficacy of the test agents. At the same dose these compounds were also evaluated for their effect on the bleeding time in mouse (Table 1).
as §1

[3] = tested on: stasis induced thrombosis in LPS treated rabbits; experiment: Rabbit venous thrombosis model (stasis induced thrombosis in LPS treated rabbits); format: in vivo, New Zealand white strain rabbits
Protocol: as §2, §1
Values are Mean±; Compound (i); n=2, Compound (ii); n=4, Compound (iii), n=4 [n is no. of observations in 2 or more animals at 10 μM/Kg or 30 μM/Kg p.o. administered 2 h prior to the stasis] or vehicle control [n=10 observations in five animals]. In heparin treated group n=6 observations for each dose in nine animals.

[4] = 30 μM/kg orally 60 min prior to collagen + adrenaline challenge
[5] = 10 μM/Kg dose p.o. 2 h prior to the stasis
[6] = 30 μM/Kg dose p.o. 2 h prior to the stasis

Bleeding time (BT) % increase (1 hr) (mouse-tail Bleeding time; 30 mg/Kg (aspirin)): 125 ± 6 (n = 30) %
Structure (SMILES): CC(=O)Oc1ccccc1C(=O)O [Aspirin, reference compound]
Antithrombotic activity (AT) (% protection) ([1]; 30 mg/Kg (aspirin, standard drug)): 38 ± 3 (n = 24) %

Structure (SMILES): COc1ccc(S(=O)(=O)N2Cc3[nH]c4ccccc4c3CC2C(N)=O)cc1 (stereo not shown) [Compound (ii), 2[-4-methoxybenzenesulfonyl]-1,2,3,4,-tetrahydro-9H-pyrido[3,4-b]indole-3-carboxylic acid amide]
% Aggregation (rat platelet aggregation; A23187 (2.5 μg/ml) induced): 51 ± 5%
% Inhibition (rat platelet aggregation; A23187 (2.5 μg/ml) induced): 54 ± 4%
inhibition of calcium ionophore A23187 induced platelet aggregation (in words) (rat platelet aggregation; A23187 (2.5 μg/ml), rat): inhibited
% Aggregation (rat platelet aggregation; ADP (10 μM) induced): 35 ± 5%
% Inhibition (rat platelet aggregation; ADP (10 μM) induced): 26 ± 10%
inhibition of ADP induced platelet aggregation (in words) (rat platelet aggregation; ADP (10 μM), rat): inhibited
% Aggregation (rat platelet aggregation; Collagen (10 μg/ml) induced): 5 ± 1%
% Inhibition (rat platelet aggregation; Collagen (10 μg/ml) induced): 79 ± 7%
% Aggregation (rat platelet aggregation; PMA (1.5 μM) induced): 44 ± 12%
% Inhibition (rat platelet aggregation; PMA (1.5 μM) induced): 26 ± 0.3%
inhibition of PMA induced platelet aggregation (in words) (rat platelet aggregation; PMA (1.5 μM), rat): inhibited
% Aggregation (rat platelet aggregation; Thrombin (0.64 U/ml) induced): 44 ± 10%
% Inhibition (rat platelet aggregation; Thrombin (0.64 U/ml) induced): 4 ± 10%
inhibition of collagen induced platelet aggregation (in words) (rat platelet aggregation; collagen (10 μg/ml), rat): inhibited
inhibition of thrombin induced platelet aggregation (in words) (rat platelet aggregation; thrombin (0.64 U/ml), rat): did not inhibit
protection against collagen and epinephrine induced thrombosis (in words) ([1]; 30 μM/kg): exhibited significant protection
Antithrombotic activity (AT) (% protection) [1, 4]: 70 ± 10 (n = 3) %
Activated partial thromboplastin time (aPTT) % Change ([2]; 100 μg/ml in vitro): 13 ± 7%
Prothrombin time (PT) % Change ([2]; 100 μg/ml in vitro): 9 ± 5%
Thrombin time (TT) % Change ([2]; 100 μg/ml in vitro): 9 ± 5%
Activated partial thromboplastin time (aPTT) % Change ([2]; 200 μg/ml in vitro): 11 ± 4%
Prothrombin time (PT) % Change ([2]; 200 μg/ml in vitro): 14 ± 7%
Thrombin time (TT) % Change ([2]; 200 μg/ml in vitro): 9 ± 4%
% Reduction (thrombus wt.) [3, 5]: −67%
Thrombus wt. [3, 5]: 79 ± 9
% Reduction (thrombus wt.) [3, 6]: 88%
Thrombus wt. [3, 6]: 5 ± 4

Bleeding time (BT) % increase (1 hr) (mouse-tail Bleeding time; 30 μM/kg orally 60 min prior to tail incision): 150%
Structure (SMILES): COC(=O)C1Cc2c([nH]c3ccccc23)CN1S(=O)(=O)c1ccccc1C(F)(F)F (racemic) [j, 2[2-trifluoromethylbenzenesulfonyl]-1,2,3,4,-tetrahydro-9H-pyrido[3,4-b]in-dole-3-carboxylic acid ester]
Antithrombotic activity (AT) (% protection) [1, 4]: 56%

Source: patent US7601838B2, “2-Alkyl/aryl sulphonyl-1,2,3,4-tetrahydro-9H-pyrido (3,4-b) indole-3-carboxylic acid esters/amides useful as antithrombotic agents” (Council of Scientific and Industrial Research, priority 2004, dated 2009)
